Values after ≈ are worked out from the molar mass of the structure shown. Active and inactive are the calls of the source. No cut-off for these calls is given here.
Legend:
[1] = system: Cryptococcus neoformans; experiment: Inhibition of biofilm formation in Cryptococcus neoformans H99 at 0.25 ug/ml incubated for 24 hrs by XTT reduction assay; assay type: functional
[2] = system: Cryptococcus neoformans; experiment: Antifungal activity against Cryptococcus neoformans H99 assessed as reduction in fungal growth incubated for 72 hrs by CLSI protocol based microplate reader analysis; assay type: functional
[3] = system: Cryptococcus neoformans; experiment: Antifungal activity against Cryptococcus neoformans H99 assessed as reduction in urease production at 8 ug/ml by microplate analysis; assay type: functional, organism-based; details: dose 8.0 µg/ml
[4] = system: Cryptococcus neoformans; experiment: Antifungal activity against Cryptococcus neoformans H99 assessed as reduction in fungal growth at 0.25 to 8 ug/ml incubated upto 72 hrs by microplate reader analysis; assay type: functional, organism-based; details: dose 0.25-8 µg/ml
[5] = system: Cryptococcus neoformans; experiment: Antifungal activity against Cryptococcus neoformans H99 assessed as reduction in number of colonies at 0.125 to 1 ug/ml incubated for 72 hrs by agar disk diffusion assay; assay type: functional; parameters: scale not given: the % may be the effect or the level left; details: dose 0.125-1 µg/ml, at 0.125 to 1 µg/mL
[6] = system: Cryptococcus neoformans; experiment: Disruption of preformed mature biofilm in Cryptococcus neoformans H99 assessed as removal of mature biofilm at 0.125 to 32 ug/ml incubated for 24 hrs in presence of 2-phenyl-4,4,5,5-tetramethylimidazoline-l-oxyl 3-oxide by XTT reduction assay; assay type: functional, organism-based; details: dose 0.125-32 µg/ml
[7] = system: Cryptococcus neoformans; experiment: Fungicidal activity against Cryptococcus neoformans H99 assessed as cell death by measuring red fluorescence at 8 ug/ml incubated for 12 hrs by PI staining based confocal laser scanning microscopy; assay type: functional, organism-based; details: dose 8.0 µg/ml
[8] = system: Cryptococcus neoformans; experiment: Fungicidal activity against Cryptococcus neoformans H99 assessed as reduction in colony forming units at 8 ug/ml incubated upto 72 hrs by time-kill assay; assay type: functional; parameters: scale not given: the % may be the effect or the level left; details: dose 8 µg/ml
[9] = system: Cryptococcus neoformans; experiment: Inhibition of CYP51 in Cryptococcus neoformans H99 assessed as reduction in ergosterol level at 0.125 ug/ml incubated for 24 hrs by GC-MS analysis (Rvb= 58.33%); details: dose 0.125 µg/ml
[10] = system: Candida albicans; experiment: Antifungal activity against Candida albicans 0304103 assessed as reduction in fungal growth incubated for 48 hrs by CLSI protocol based microplate reader analysis; assay type: functional
[11] = system: Cryptococcus neoformans; experiment: Inhibition of CYP51 in Cryptococcus neoformans H99 assessed as increase in lanosterol level at 0.125 ug/ml incubated for 24 hrs by GC-MS analysis (Rvb= 6.24%); details: dose 0.125 µg/ml
[12] = system: Cryptococcus neoformans; experiment: Inhibition of CYP51 in Cryptococcus neoformans H99 assessed as decrease in unknown sterol level at 0.125 ug/ml incubated for 24 hrs by GC-MS analysis (Rvb= 22.95%); details: dose 0.125 µg/ml
[13] = system: Cryptococcus neoformans; experiment: Inhibition of CYP51 in Cryptococcus neoformans H99 assessed as increase in other unknown sterol level at 0.125 ug/ml incubated for 24 hrs by GC-MS analysis (Rvb= 12.49%); details: dose 0.125 µg/ml
[14] = system: Cryptococcus neoformans; experiment: Antifungal activity against Cryptococcus neoformans H99 assessed as reduction in melanin production at 32 ug/ml by microplate analysis; assay type: functional, organism-based; details: dose 32.0 µg/ml
[15] = system: Nakaseomyces glabratus; experiment: Antifungal activity against Candida glabrata 10639 assessed as reduction in fungal growth incubated for 48 hrs by CLSI protocol based microplate reader analysis; assay type: functional
[16] = system: Cryptococcus neoformans; experiment: Disruption of preformed mature biofilm in Cryptococcus neoformans H99 assessed as removal of mature biofilm at 0.125 ug/ml incubated for 24 hrs by XTT reduction assay; assay type: functional; parameters: scale not given: the % may be the effect or the level left; details: dose 0.125 µg/ml
[17] = system: Cryptococcus neoformans; experiment: Disruption of preformed mature biofilm in Cryptococcus neoformans H99 assessed as removal of mature biofilm at 32 ug/ml incubated for 24 hrs by XTT reduction assay; assay type: functional; parameters: scale not given: the % may be the effect or the level left; details: dose 32 µg/ml
[18] = system: Candida albicans; experiment: Antifungal activity against Candida albicans SC5314 assessed as reduction in fungal growth incubated for 48 hrs by CLSI protocol based microplate reader analysis; assay type: functional
[19] = Drug metabolism in Cryptococcus neoformans H99 assessed as NO release by measuring green fluorescence at 8 ug/ml incubated for 12 hrs by DAF-FM DA staining based confocal laser scanning microscopy; assay type: ADME; details: dose 8 µg/ml
[20] = Metabolic stability in Sprague-Dawley rat liver microsomes assessed as parent compound remaining at 200 uM and measured upto 120 mins by HPLC analysis; assay type: ADME, Microsome; details: 2 h
[21] = system: Cryptococcus neoformans; experiment: In vivo antifungal activity against Cryptococcus neoformans H99 infected in cryptococcal meningitis ICR mouse model assessed as reduction in fungal burden in brain at 10 mg/kg,INH QD for 5 days by CFU assay; assay type: functional, organism-based; details: time 5.0 day
[22] = Metabolic stability in Sprague-Dawley rat plasma assessed as parent compound remaining at 500 uM and measured upto 120 mins by HPLC analysis; assay type: ADME, cell-free; details: 2 h
[23] = system: Cryptococcus neoformans; experiment: In vivo antifungal activity against Cryptococcus neoformans H99 infected in cryptococcal meningitis ICR mouse model assessed as reduction in organism brain invasion at 10 mg/kg,INH QD for 5 days by PAS staining based microscopic analysis; assay type: functional; details: time 5.0 day
[24] = system: Cryptococcus neoformans; experiment: In vivo antifungal activity against Cryptococcus neoformans H99 infected in cryptococcal meningitis ICR mouse model assessed as reduction in blood vessel congestion at 10 mg/kg,INH QD for 5 days by H and E staining based microscopic analysis; assay type: functional, organism-based; details: time 5.0 day
[25] = system: Cryptococcus neoformans; experiment: In vivo antifungal activity against Cryptococcus neoformans H99 infected in cryptococcal meningitis ICR mouse model assessed as reduction in irregular cavities in brain at 10 mg/kg,INH QD for 5 days by H and E staining based microscopic analysis; assay type: functional, organism-based; details: time 5.0 day
[26] = system: Cryptococcus neoformans; experiment: In vivo antifungal activity against Cryptococcus neoformans H99 infected in cryptococcal meningitis ICR mouse model assessed as reduction in neuronal necrosis at 10 mg/kg,INH QD for 5 days by H and E staining based microscopic analysis; assay type: functional, organism-based; details: time 5.0 day
[27] = system: Cryptococcus neoformans; experiment: In vivo antifungal activity against Cryptococcus neoformans H99 infected in cryptococcal meningitis ICR mouse model assessed as reduction in fungal burden in lung at 10 mg/kg,INH QD for 5 days by CFU assay; assay type: functional, organism-based; details: time 5.0 day
[28] = system: Cryptococcus neoformans; experiment: In vivo antifungal activity against Cryptococcus neoformans H99 infected in cryptococcal meningitis ICR mouse model assessed as reduction in fungal burden in lung at 1 mg/kg,INH QD for 5 days by CFU assay; assay type: functional, organism-based; details: time 5.0 day
[29] = system: Cryptococcus neoformans; experiment: In vivo antifungal activity against Cryptococcus neoformans H99 infected in cryptococcal meningitis ICR mouse model assessed as reduction in neuronal necrosis at 1 mg/kg,INH QD for 5 days by H and E staining based microscopic analysis; assay type: functional, organism-based; details: time 5.0 day
[30] = system: Cryptococcus neoformans; experiment: In vivo antifungal activity against Cryptococcus neoformans H99 infected in cryptococcal meningitis ICR mouse model assessed as reduction in irregular cavities in brain at 1 mg/kg,INH QD for 5 days by H and E staining based microscopic analysis; assay type: functional, organism-based; details: time 5.0 day
[31] = system: Cryptococcus neoformans; experiment: Antifungal activity against Cryptococcus neoformans H99 assessed as change in internal microstructure by observing sparse capsule at 0.125 to 4 ug/ml incubated for 8 hrs by TEM analysis; assay type: functional, organism-based; details: dose 0.125-4 µg/ml
[32] = system: Cryptococcus neoformans; experiment: Antifungal activity against Cryptococcus neoformans H99 assessed as reduction in melanin production at 16 ug/ml by microplate analysis; assay type: functional, organism-based; details: dose 16.0 µg/ml
[33] = system: Cryptococcus neoformans; experiment: Antifungal activity against Cryptococcus neoformans H99 assessed as change in internal microstructure by observing cell membrane damage at 0.125 to 4 ug/ml incubated for 8 hrs by TEM analysis; assay type: functional, organism-based; details: dose 0.125-4 µg/ml
[34] = system: Cryptococcus neoformans; experiment: Inhibition of biofilm formation in Cryptococcus neoformans H99 at 0.25 ug/ml incubated for 24 hrs in presence of 2-phenyl-4,4,5,5-tetramethylimidazoline-l-oxyl 3-oxide by XTT reduction assay; assay type: functional, organism-based; details: dose 0.25 µg/ml
[35] = system: Cryptococcus neoformans; experiment: In vivo antifungal activity against Cryptococcus neoformans H99 infected in cryptococcal meningitis ICR mouse model assessed as reduction in blood vessel congestion at 1 mg/kg,INH QD for 5 days by H and E staining based microscopic analysis; assay type: functional, organism-based; details: time 5.0 day
[36] = system: Cryptococcus neoformans; experiment: In vivo antifungal activity against Cryptococcus neoformans H99 infected in cryptococcal meningitis ICR mouse model assessed as reduction in fungal burden in brain at 1 mg/kg,INH QD for 5 days by CFU assay; assay type: functional, organism-based; details: time 5.0 day
[37] = system: Cryptococcus neoformans; experiment: In vivo antifungal activity against Cryptococcus neoformans H99 infected in cryptococcal meningitis ICR mouse model assessed as reduction in organism brain invasion at 1 mg/kg,INH QD for 5 days by PAS staining based microscopic analysis; assay type: functional; details: time 5.0 day
[38] = system: Cryptococcus neoformans; experiment: Antifungal activity against Cryptococcus neoformans H99 assessed as reduction in urease production at 4 ug/ml by microplate analysis; assay type: functional, organism-based; details: dose 4.0 µg/ml

## CN(Cc1ccc(OCCCOc2ccc(CC(=O)OCc3ccc(CO[N+](=O)[O-])cc3)cc2)cc1)CC(O)(Cn1cncn1)c1ccc(F)cc1F (stereo unspecified)
[1]
  inhibition at 0.25 µg/mL: > 50%
[2]
  MIC80: 0.5 µg/mL (≈ 0.683 µM)
[3]
  Activity: Active
[4]
  Activity: Dose-Dependent Effect
[5]
  Activity: 100%
[6]
  Activity: inactive
[7]
  Activity: Active
[8]
  Activity: 100%
[9]
  inhibition: 10.7%
[10]
  MIC80: 32 µg/mL (≈ 43.7 µM)
[11]
  inhibition: 50.9%
[12]
  inhibition: 4.75%
[13]
  inhibition: 33.6%
[14]
  Activity: Active
[15]
  MIC80: 1 µg/mL (≈ 1.37 µM)
[16]
  Activity: 25%
[17]
  Activity: 50%
[18]
  MIC80: 1 µg/mL (≈ 1.37 µM)
[19]
  Drug metabolism: Metabolite_Detected

## CN(Cc1ccc(OCCCOc2ccc(CC(=O)NCCO[N+](=O)[O-])cc2)cc1)CC(O)(Cn1cncn1)c1ccc(F)cc1F (stereo unspecified)
[2]
  MIC80: 0.125 µg/mL (≈ 0.191 µM)
[20]
  Stability: Stable
[21]
  Activity: Active
[10]
  MIC80: > 64 µg/mL
[22]
  Stability: Stable
[23]
  Activity: Active
[24]
  Activity: Active
[15]
  MIC80: 1 µg/mL (≈ 1.53 µM)
[25]
  Activity: Active
[18]
  MIC80: 1 µg/mL (≈ 1.53 µM)
[26]
  Activity: Active
[27]
  Activity: inactive

## CN(Cc1ccc(OCCCOc2ccc(CC(=O)OCCO[N+](=O)[O-])cc2)cc1)CC(O)(Cn1cncn1)c1ccc(F)cc1F (stereo unspecified)
[1]
  inhibition at 0.25 µg/mL: > 50%
[2]
  MIC80: 0.125 µg/mL (≈ 0.191 µM)
[20]
  Stability: Unstable
[4]
  Activity: Dose-Dependent Effect
[28]
  Activity: Active
[5]
  Activity: 100%
[6]
  Activity: inactive
[29]
  Activity: Active
[7]
  Activity: Active
[8]
  Activity: 100%
[30]
  Activity: Active
[9]
  inhibition: 23.7%
[31]
  Activity: Dose-Dependent Effect
[10]
  MIC80: > 64 µg/mL
[32]
  Activity: Active
[11]
  inhibition: 44.5%
[22]
  Stability: Unstable
[33]
  Activity: Active
[34]
  inhibition: inactive
[12]
  inhibition: 5.31%
[35]
  Activity: Active
[13]
  inhibition: 26.5%
[36]
  Activity: Active
[15]
  MIC80: 1 µg/mL (≈ 1.53 µM)
[16]
  Activity: 25%
[37]
  Activity: Active
[38]
  Activity: Active
[17]
  Activity: 50%
[18]
  MIC80: 1 µg/mL (≈ 1.53 µM)
[19]
  Drug metabolism: Metabolite_Detected

Reference: ChEMBL document CHEMBL5370616, “Novel Nitric Oxide Donor-Azole Conjugation Strategy for Efficient Treatment of Cryptococcus neoformans Infections” (J Med Chem, 2023)
